These results are taken from patent US11759480B2, “Compositions and methods for CAR T cell therapy” (ENDOCYTE, INC., priority 2017, dated 2023).

For one data set, the system named is FR+ HEK-FRa xenografts. The data set can be described thus: FITC-CAR-T proliferation in HEK-FRa s.c. xenograft model (Example 37). It counts as in vivo, mice. To be noted: 500 nmol/kg three times per week. How it is done: The evaluation of FITC-CAR-T proliferation and related toxicity in both naïve mice and mice bearing FR+ tumor xenografts was tested. To evaluate whether FITC-CAR-T proliferation in vivo is dependent on the co-existence of the bridge (e.g. EC17) and the tumor antigen (e.g. folate receptor), FITC-CAR-T proliferation in vivo was compared in naïve mice and mice bearing FR+ tumor xenografts, either with or without EC17. 5-8 million CAR-T cells (as indicated in FIGS. 42 and 43) were administered (i.v.) into naïve mice without tumors and mice bearing FR+ tumor xenografts (80-200 mm3). 500 nmol/kg EC17 was dosed 4 hours before and three times per week post CAR-T administration, if desired. Mice were monitored for body weight changes and CAR-T cell count in blood circulation; some mice were also euthanized weekly to evaluate organs. […] CAR-T cell count in blood samples was also compared to evaluate CAR-T proliferation. […] Since the enlargement of spleen size is another indicator for CAR-T proliferation in vivo, spleen size was also measured as shown in FIG. 43B.
For FIG. 42, the MDA-MB-231 s.c. model was used. For FIG. 43A, the HEK-FRa s.c. xenograft model was used. For FIG. 43B, the MDA-MB-231 s.c. model was used.

A further data set deals with KB. Put plainly: FITC-CAR-T/EC17 therapy, KB model (Example 28). The format is in vivo, NSG mice. How it is done:
(§1) To test whether FITC-CAR-T/EC17 therapy has anti-tumor activity in various FR+ tumor models, NSG mice were subcutaneously implanted with MDA-MB-231 (triple negative breast cancer cell line), OV90 (human ovarian cancer cell line), KB (human cervical adenocarcinoma cell line), SKOV-3 (human ovarian carcinoma cell line), or HEK293-FRa (HEK293 stably-transfected with human FRa). When tumor size reached […], one dose of EC17 at 500 nmol/kg of body weight was injected by tail vein followed with administering of 5 million FITC-CAR-T cells 4 hours later. 500 nmol/kg EC17 was dosed once every week after the initial EC17/CAR-T administration (about day 7), tumor size and body weights of mice were monitored three times per week. The EC17 dosing days were labeled as green dashed vertical lines in the graph. […] EC17 dose-dependent temporary body weight loss was also observed in all tumor bearing mice, indicating the activation of CAR-Ts is EC17-dependent in these mice.

Another data set concerns SKOV-3. The data set can be described thus: FITC-CAR-T/EC17 therapy, SKOV-3 model (Example 28). It counts as in vivo, NSG mice. To be noted: 500 nmol/kg weekly, 5 million FITC-CAR-T. How it is done:
as §1

For data set [1], the system named is anti-FITC CAR T cells with MDA-MB-231. Put plainly: In vitro interferon-γ assay (Example 22). The format is cell-based, Human. How it is done:
In order to study the relationship between bridge dose and anti-FITC CAR T cell activation, a folate receptor positive cancer cell line (MDA-MB-231) was seeded at a density of 10^4 cells/100 ul of media in each well of a 96-well plate and the cells were grown overnight. Anti-FITC CAR T cells (5×10^4 cells) were then added into each well containing cancer cells with various concentrations of Folate-FITC (from 0.001 nM to 100 μM) for 6-24 hours. After co-incubation, the plates containing anti-FITC CAR T cells and cancer cells were centrifuged for 10 min at 350×g to remove cells and cellular debris, and 50 ul of supernatant was assayed by ELISA (Human IFN-γ ELISA kit from Biolegend) to detect IFN-γ production by anti-FITC CAR T cells.

In another data set the test system is MDA-MB-231. The data set can be described thus: EC17 dependent anti-tumor activity, MDA-MB-231 xenograft (Example 26). The format is in vivo, NSG mice. To be noted: 500 nmoles/kg once per week, 5 million CAR-T. An excerpt: Immunodeficient NSG mice (Jackson Laboratory) were used to show the efficacy of CAR T cell anti-tumor activity with a single dose of EC17 per week. Two folate receptor expressing cancer cell lines were used to establish subcutaneous solid tumor xenografts: MDA-MB-231 has high folate receptor expression, while OV90 has low folate receptor expression. When tumor volume of around 100-250 mm^3 was reached, mice were divided into two groups. Mice in the “EC17 500 nmol/kg” group (nmol/kg is equivalent to nmoles/kg as used in this patent application for the bridge) were injected with 500 nmoles/kg of body weight of EC17, while mice in the “no EC17” group were not injected with EC17. Four hours later, mice in both groups were administered 5 million anti-FITC CAR-T cells. After initial administration of EC17 and CAR-T cells, only mice in the “EC17 500 nmol/kg” group were injected (i.v.) with 500 nmoles/kg of EC17 once per week. Anti-tumor efficacy was monitored by tumor volume.

Data set [2] deals with anti-fluorescein scFv on CAR T cells. The data set can be described thus: Competitive binding assay against FITC-Alexa647 on CAR T cells. To be noted: 1 μM competing ligand versus FITC-Alexa647 10 nM. How it is done:
To examine the ability of bridge molecules to bind anti-fluorescein scFv on CAR T cells, a competitive binding assay was developed. Measurement of the fluorescein signal from CAR T cell bound bridges could not be used due to the overlap of its fluorescence with that of the GFP expressing CAR T cells. For this purpose, FITC-Alexa647 (10 nM) was allowed to bind anti-fluorescein CAR T cells in the absence or presence of excess (1 μM) competing ligand (i.e. FITC-folate, FITC-DUPA, FITC-CA9) for 1 h at room temperature. After incubation, anti-fluorescein CAR T cells were washed 3× with PBS to remove unbounded FITC-Alexa647, and the washed cells were analyzed for Alexa647 fluorescence by flow cytometry.
Fluorescein-folate (FITC-folate) and fluorescein-PSMA (FITC-DUPA) were synthesized as previously described. To examine the ability of these bridge molecules to bind anti-fluorescein scFv on CAR T cells, a competitive binding assay had to be developed, because measurement of the fluorescein signal from CAR T cell bound bridge could not be used due to the overlap of its fluorescence with that of the GFP expressing CAR T cells. For this purpose, FITC-Alexa647 (10 nM) was allowed to bind anti-fluorescein CAR T cells in the absence or presence of excess (1 μM) competing ligand (i.e. FITC-folate) for 1 h at room temperature. After incubation, anti-fluorescein CAR T cells were washed 3× with PBS to remove unbounded FITC-Alexa647, and the washed cells were analyzed for Alexa647 fluorescence by flow cytometry. For analysis of FITC-folate to binding to folate receptor, FR positive KB cells were incubated with FITC-folate (100 nM) in the absence or presence of excess (10 μM) free folate (i.e. as a competitive ligand). After washing samples with PBS (3 times), samples were analyzed by flow cytometry for fluorescein-folate binding.

As for `Nc1nc2ncc(CNc3ccc(C(=O)NC(CCC(=O)NCCNC(=S)Nc4ccc(-c5c6ccc(=O)cc-6oc6cc(O)ccc56)c(C(=O)O)c4)C(=O)O)cc3)nc2c(=O)[nH]1` (stereo not shown) [EC17, FITC-Folate], in the data set on FR+ HEK-FRa xenografts, the FITC-CAR-T proliferation result is given as “rapid proliferation”. Further, the tumor response entry with KB (500 nmol/kg weekly, 5 million FITC-CAR-T) is “stable disease”; in the data set on SKOV-3, “stable disease”. The “fraction of mice with sCRS” value was “⅔” in the data set on KB (day 23) and “⅓” in the data set on KB (day 37). Further, in data set [1] (0.001 nM to 100 μM, 6-24 hours), the “optimal bridge dose (highest IFN-γ level)” value stood at 10 nM. Moreover, the IFN-γ production result in data set [1] (10 μM and 100 μM) is “not detected”. In addition, in the data set with MDA-MB-231, the anti-tumor activity entry is listed as “eliminate MDA-MB-231 tumors”. In addition, the figures for the “binding to CAR-expressing T cells” value in data set [2] and in data set [2] (listed as fluorescein-folate) were “able to bind to the CAR-expressing T cells” and “competitively block FITC-Alexa 647 binding”, respectively.
